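Protocol summary: plate cells (96-well), add compound at 5 concentrations, incubate 48 h, interpolate endpoints linearly. GI50 is the concentration that inhibits growth by half.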 Calls of active or inactive are those of the source. No stated cut-off is given here; in the data, active = GI50 up to about 1.1 µM and inactive = higher.
What was measured:
Experiment in all cases: DTP human tumour cell line panel, 48 h
LOX IMVI = tested on: LOX IMVI
OVCAR-4 = tested on: OVCAR-4
786-0 = tested on: 786-0
HL-60 = tested on: HL-60
EKVX = tested on: EKVX
CCRF-CEM = tested on: CCRF-CEM
SK-MEL-5 = tested on: SK-MEL-5
SR = tested on: SR
OVCAR-3 = tested on: OVCAR-3
U-251 = tested on: U-251
HCT-15 = tested on: HCT-15
Malme-3M = tested on: Malme-3M
SNB-19 = tested on: SNB-19
ACHN = tested on: ACHN
NCI-H23 = tested on: NCI-H23
RXF 393 = tested on: RXF 393
Hs-578T = tested on: Hs-578T
SW-620 = tested on: SW-620
HCC 2998 = tested on: HCC 2998
NCI-H460 = tested on: NCI-H460

Compound	GI50 (LOX IMVI)	GI50 (OVCAR-4)	GI50 (786-0)	GI50 (HL-60)	GI50 (EKVX)	GI50 (CCRF-CEM)	GI50 (SK-MEL-5)	GI50 (SR)	GI50 (OVCAR-3)	GI50 (U-251)	GI50 (HCT-15)	GI50 (Malme-3M)	GI50 (SNB-19)	GI50 (ACHN)	GI50 (NCI-H23)	GI50 (RXF 393)	GI50 (Hs-578T)	GI50 (SW-620)	GI50 (HCC 2998)	GI50 (NCI-H460)
Cc1nnc([C@@]2(C)CC[C@H]3[C@@H](CC=C4C[C@@H](O)CC[C@@]43C)[C@@H]2CC#N)o1	> 100 µM (inactive)	> 100 µM (inactive)	> 100 µM (inactive)	> 100 µM (inactive)	> 100 µM (inactive)	> 100 µM (inactive)	> 100 µM (inactive)	> 100 µM (inactive)	> 100 µM (inactive)	> 100 µM (inactive)	> 100 µM	> 100 µM (inactive)	> 100 µM (inactive)	> 100 µM (inactive)	> 100 µM (inactive)	> 100 µM (inactive)	11.6 µM (inactive)	> 100 µM (inactive)	–	–
ClC(Cl)(Cl)C1=N[C@H]2[C@H](Br)[C@@H]3O[C@@H](c4ccccc4)[C@H](c4ccccc4)O[C@@H]3[C@H]2O1	17.1 µM (inactive)	18.7 µM (inactive)	21.4 µM (inactive)	–	26.2 µM (inactive)	17.7 µM (inactive)	17.3 µM (inactive)	21.1 µM (inactive)	16.6 µM (inactive)	17.1 µM (inactive)	27.2 µM	19.2 µM (inactive)	27.4 µM (inactive)	17.3 µM (inactive)	21 µM (inactive)	20.5 µM (inactive)	23.8 µM (inactive)	19.6 µM (inactive)	15.2 µM (inactive)	16 µM (inactive)
C/C(=C\COP(=O)(O)OP(=O)(O)O)CC/C=C(\C)CNc1ccccc1	> 50 µM (inactive)	–	> 50 µM (inactive)	1.05 µM (active)	> 50 µM (inactive)	0.832 µM (active)	26.9 µM (inactive)	0.0893 µM (active)	–	> 50 µM (inactive)	> 50 µM	–	48.1 µM (inactive)	> 50 µM (inactive)	–	> 50 µM (inactive)	26.4 µM (inactive)	> 50 µM (inactive)	–	> 50 µM (inactive)
N#Cc1nnc2c3c(-c4ccc(Cl)cc4)c(C#N)c(O)nc3nn2c1N	2.85 µM (inactive)	14.9 µM (inactive)	5.14 µM (inactive)	–	12.9 µM (inactive)	3.63 µM (inactive)	6.71 µM (inactive)	2.14 µM (inactive)	3.27 µM (inactive)	1.28 µM (inactive)	8.83 µM	14.4 µM (inactive)	3.25 µM (inactive)	8.11 µM (inactive)	5.81 µM (inactive)	3.98 µM (inactive)	3.4 µM (inactive)	5.46 µM (inactive)	3.14 µM (inactive)	9.14 µM (inactive)
COc1cccc([C@H]2CC(=O)c3cc4c(cc3N2)OCO4)c1	0.714 µM (active)	20.6 µM (inactive)	0.418 µM (active)	–	–	0.49 µM (active)	0.216 µM (active)	0.318 µM (active)	0.598 µM (active)	0.393 µM (active)	0.341 µM	0.671 µM (active)	0.312 µM (active)	0.847 µM (active)	0.451 µM (active)	0.171 µM (active)	0.216 µM (active)	0.428 µM (active)	0.434 µM (active)	0.411 µM (active)
CCOC(=O)/C=C(/C(=O)OCC)n1ccc(N)nc1=O	97.7 µM (inactive)	56 µM (inactive)	> 100 µM (inactive)	70.6 µM (inactive)	84.9 µM (inactive)	25.5 µM (inactive)	> 100 µM (inactive)	89.1 µM (inactive)	> 100 µM (inactive)	> 100 µM (inactive)	> 100 µM	44.6 µM (inactive)	> 100 µM (inactive)	> 100 µM (inactive)	> 100 µM (inactive)	–	> 100 µM (inactive)	72.3 µM (inactive)	> 100 µM (inactive)	> 100 µM (inactive)
CCn1c(-c2cc3ccccc3cc2OC(C)=O)n[nH]c1=S	37.2 µM (inactive)	30 µM (inactive)	75.7 µM (inactive)	0.0805 µM (active)	9.95 µM (inactive)	1.16 µM (inactive)	14.9 µM (inactive)	0.624 µM (active)	23.7 µM (inactive)	20.2 µM (inactive)	27 µM	–	–	35.8 µM (inactive)	30.5 µM (inactive)	11.1 µM (inactive)	15.2 µM (inactive)	35 µM (inactive)	18 µM (inactive)	24.7 µM (inactive)
CCOc1ccc2c(c1)c(CC(=O)O)cn2C	> 100 µM (inactive)	–	> 100 µM (inactive)	> 100 µM (inactive)	> 100 µM (inactive)	> 100 µM (inactive)	–	> 100 µM (inactive)	> 100 µM (inactive)	> 100 µM (inactive)	> 100 µM	> 100 µM (inactive)	> 100 µM (inactive)	> 100 µM (inactive)	> 100 µM (inactive)	> 100 µM (inactive)	> 100 µM (inactive)	–	> 100 µM (inactive)	> 100 µM (inactive)
COc1ccc(N[S+]([O-])c2c(C)cc(C)cc2C)cc1 (centres undefined)	57 µM (inactive)	86.5 µM (inactive)	89.5 µM (inactive)	33 µM (inactive)	43.8 µM (inactive)	> 100 µM (inactive)	23.8 µM (inactive)	35.7 µM (inactive)	61.9 µM (inactive)	50 µM (inactive)	18.2 µM	20.3 µM (inactive)	> 100 µM (inactive)	43.7 µM (inactive)	> 100 µM (inactive)	–	34.4 µM (inactive)	48.2 µM (inactive)	19.5 µM (inactive)	35.6 µM (inactive)
O=C1/C(=C/c2ccc(Cl)cc2)N=C(c2ccccc2)N1c1nc2c(Cl)cc(Cl)cc2s1	22.4 µM (inactive)	30.9 µM (inactive)	31.8 µM (inactive)	17.3 µM (inactive)	14.3 µM (inactive)	3.45 µM (inactive)	18.9 µM (inactive)	14.3 µM (inactive)	19.8 µM (inactive)	19.7 µM (inactive)	32.4 µM	–	34.8 µM (inactive)	31.7 µM (inactive)	–	29.9 µM (inactive)	31.5 µM (inactive)	30.7 µM (inactive)	40.2 µM (inactive)	28.6 µM (inactive)
O/N=C\c1c2c(cc3c1CCC3)CCC2	> 100 µM (inactive)	> 100 µM (inactive)	> 100 µM (inactive)	> 100 µM (inactive)	> 100 µM (inactive)	> 100 µM (inactive)	> 100 µM (inactive)	> 100 µM (inactive)	> 100 µM (inactive)	> 100 µM (inactive)	> 100 µM	> 100 µM (inactive)	> 100 µM (inactive)	> 100 µM (inactive)	> 100 µM (inactive)	–	> 100 µM (inactive)	> 100 µM (inactive)	> 100 µM (inactive)	> 100 µM (inactive)

Reference: ChEMBL document CHEMBL1201862, “PubChem BioAssay data set” (2004)
